How the values were obtained:
kindlin-2 = target: T1, kindlin-2 (Homo sapiens, UniProt Q96AC1); assay: Microscale thermophoresis (MST) affinity measurement; assay type: binding; details: compared with β1-WT tails
T1 sequence (Q96AC1 1-680): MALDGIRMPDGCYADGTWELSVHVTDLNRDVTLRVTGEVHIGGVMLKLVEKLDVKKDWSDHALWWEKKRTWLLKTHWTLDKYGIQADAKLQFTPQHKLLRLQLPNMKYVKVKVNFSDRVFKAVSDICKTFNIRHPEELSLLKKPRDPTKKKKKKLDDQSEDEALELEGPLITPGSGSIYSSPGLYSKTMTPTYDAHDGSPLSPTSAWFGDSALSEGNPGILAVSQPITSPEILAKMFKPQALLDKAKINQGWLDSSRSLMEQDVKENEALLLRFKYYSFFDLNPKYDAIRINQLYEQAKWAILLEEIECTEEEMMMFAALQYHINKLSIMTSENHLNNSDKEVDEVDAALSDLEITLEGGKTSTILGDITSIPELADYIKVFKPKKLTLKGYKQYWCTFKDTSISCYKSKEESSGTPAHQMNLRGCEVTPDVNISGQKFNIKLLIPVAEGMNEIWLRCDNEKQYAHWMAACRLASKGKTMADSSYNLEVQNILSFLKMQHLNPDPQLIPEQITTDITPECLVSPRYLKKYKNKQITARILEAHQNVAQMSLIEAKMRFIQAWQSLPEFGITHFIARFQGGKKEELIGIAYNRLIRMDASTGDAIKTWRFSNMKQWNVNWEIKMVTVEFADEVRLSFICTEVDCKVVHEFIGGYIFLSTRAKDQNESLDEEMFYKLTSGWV
Procedure: All MST measurements were performed on a Monolith NT.115 red-blue (Nanotemper) using premium-coated capillaries to reduce non-specific interaction of the proteins with the glass surface. Both interaction partners (ligand and receptor) were transferred into MST buffer (20 mM Tris, pH 7.5, 200 mM sodium chloride, 1 mM tris(2-carboxyethyl)phosphine [TCEP], 0.05% Tween-20) to avoid artifacts derived from buffer mismatches. […] The measurements were carried out at 20% light emitting diode power and 20% and 40% MST power. Data were analyzed using the MO Affinity Analysis Software (Nanotemper).

recombinant kindlin-2 = assay: Streptavidin-bead peptide pull-down with recombinant protein; assay type: binding; details: N-terminally desthio biotinylated peptide on streptavidin beads; kindlin-2 2.5 nM; THD absent or present; 2 h at 4°C; Western blot
Procedure: (§1) Before use, peptides were immobilized on 25 μl Dynabeads MyOne Streptavidin C1 (10 mg/ml; Invitrogen) in Mammalian Protein Extraction Reagent (Thermo Fisher Scientific) containing protease inhibitors (cOmplete; Roche) and phosphatase inhibitors (Phosphatase Inhibitor Cocktail 2 and 3; Sigma-Aldrich) for 3 h at 4°C. Cell lysates were prepared with MPER containing protease and phosphatase inhibitors and 0.5 mg of supernatant was incubated with the peptide-coated beads at 4°C under constant rotation. For pull-downs with recombinant proteins, synthetic β1 integrin tail peptides were immobilized on 25 μl Dynabeads MyOne Streptavidin C1 (10 mg/ml; Invitrogen) for 3 h at 4°C, incubated with 2% BSA in Mammalian Protein Extraction Reagent (Thermo Scientific Scientific) for 30 min at 4°C to block unspecific binding before adding kindlin-2 or THD (conc 2.5 and 8.5 nM, respectively) and further incubation on a rotator for 2 h at 4°C. After washing the beads three times with lysis buffer, the proteins bound to the beads were eluted using Laemmli buffer, separated on a 10% SDS–PAGE, and analyzed by Western blotting.

endogenous SNX17 = assay: Peptide pull-down from whole cell lysate, Western blot; assay type: binding; details: densitometry, compared with β1-WT, mean ± SD, n = 5, SD
Procedure: as §1

endogenous kindlin-2 = assay: as above; assay type: binding; details: densitometry, compared with β1-WT, mean ± SD, n = 5, SD
Procedure: as §1

[1] = Mass spectrometry-based measurement of the peptide's phosphorylation state after incubation in whole cell lysates; assay type: in vitro ADME; details: whole cell lysate in MPER with protease and phosphatase inhibitors, 4°C; read-out mass spectrometry

CC[C@H](C)[C@H](NC(=O)[C@@H]1CCCN1C(=O)[C@H](CC(N)=O)NC(=O)[C@H](CCC(=O)O)NC(=O)CNC(=O)[C@@H](NC(=O)[C@H](CC(=O)O)NC(=O)[C@H](Cc1c[nH]c2ccccc12)NC(=O)[C@H](CCCCN)NC(=O)[C@H](C)NC(=O)[C@H](CC(N)=O)NC(=O)[C@H](CCSC)NC(=O)[C@H](CCCCN)NC(=O)[C@H](CCC(=O)O)NC(=O)[C@H](CCCCN)NC(=O)[C@H](CCC(=O)O)NC(=O)[C@H](Cc1ccccc1)NC(=O)[C@H](CCCCN)NC(=O)[C@H](C)NC(=O)[C@H](Cc1ccccc1)NC(=O)[C@H](CCC(=O)O)NC(=O)[C@H](CCCNC(=N)N)NC(=O)[C@H](CCCNC(=N)N)NC(=O)[C@H](CC(=O)O)NC(=O)[C@@H](N)Cc1c[nH]cn1)[C@@H](C)O)C(=O)N[C@@H](Cc1ccc(O)cc1)C(=O)N[C@@H](CCCCN)C(=O)N[C@@H](CO)C(=O)N[C@@H](C)C(=O)N[C@H](C(=O)N[C@H](C(=O)N[C@H](C(=O)N[C@H](C(=O)N[C@H](C(=O)N[C@@H](CC(N)=O)C(=O)N1CCC[C@H]1C(=O)N[C@@H](CCCCN)C(=O)N[C@@H](Cc1ccc(O)cc1)C(=O)N[C@@H](CCC(=O)O)C(=O)NCC(=O)N[C@@H](CCCCN)C(=O)O)C(C)C)C(C)C)[C@@H](C)OP(=O)(O)O)[C@@H](C)OP(=O)(O)O)C(C)C [β1-pTpT]
affinity of kindlin-2 for the tail peptide (in words) (kindlin-2): not measurable anymore
pull-down of recombinant kindlin-2 (in words) (recombinant kindlin-2): not
SNX17 binding to the peptide, reduced to (endogenous SNX17): 60 ± 11%
kindlin-2 binding to the peptide, reduced to (endogenous kindlin-2): 27 ± 11%
reduction of the peptide's phosphorylation after incubation in whole cell lysates [1]: around 40%

Reference: PMC8761493, “New insights into the phosphorylation of the threonine motif of the β1 integrin cytoplasmic domain” (Life Science Alliance, 2022)
